This note sets out measurements from ChEMBL document CHEMBL3872220, “Amphiphilic xanthones as a potent chemical entity of anti-mycobacterial agents with membrane-targeting properties” (Eur J Med Chem, 2016).

SMILES strings stand for the structures. Values after ≈ are worked out from the molar mass of the structure shown. A value given as a limit tells only on which side of the number the result lay.

The MIC90 is the lowest concentration that inhibits either 90% of growth or 90% of the strains tested, depending on the study. A lower MIC90 goes with greater potency.

The first experiment deals with Mycobacterium tuberculosis variant bovis. The experiment is described as follows: Antimycobacterial activity against Mycobacterium bovis BCG ATCC 35734 after 5 days by broth dilution assay. Type of experiment: functional. To be noted: ATCC 35734, 120 h. In general terms: In broth dilution the organism is exposed to a series of concentrations in liquid medium.
On to `COc1c(OCCCCN2CCOCC2)cc2oc3cc(OCCCCN4CCOCC4)c(CC=C(C)C)c(OCCCCN4CCOCC4)c3c(=O)c2c1CC=C(C)C`, for which the MIC90 was determined as 12.8 µM (≈ 10.7 µg/mL).

In turn, `COc1c(OCCCCN2CCSCC2)cc2oc3cc(OCCCCN4CCSCC4)c(CC=C(C)C)c(O)c3c(=O)c2c1CC=C(C)C` had an MIC90 of 30 µM (≈ 21.8 µg/mL). For `COc1c(OCC(=O)NC(CCCNC(=N)N)C(N)=O)cc2oc3cc(OCC(=O)NC(CCCNC(=N)N)C(N)=O)c(CC=C(C)C)c(O)c3c(=O)c2c1CC=C(C)C` (centres undefined), the MIC90 is > 30 µM. Compound `CCN(CC)CCCCOc1cc2oc3cc(OCCCCN(CC)CC)c(OC)c(CC=C(C)C)c3c(=O)c2c(OCCCCN(CC)CC)c1CC=C(C)C` returned an MIC90 of 6.4 µM (≈ 5.07 µg/mL).

Turning to `COc1c(OCC(O)CNC(CO)(CO)CO)cc2oc3cc(OCC(O)CNC(CO)(CO)CO)c(CC=C(C)C)c(O)c3c(=O)c2c1CC=C(C)C` (centres undefined), the MIC90 is > 30 µM.

Consider `CO[C@H]1/C=C/O[C@@]2(C)Oc3c(C)c(O)c4c(O)c(c(/C=N/N5CCN(C)CC5)c(O)c4c3C2=O)NC(=O)/C(C)=C\C=C\[C@H](C)[C@H](O)[C@@H](C)[C@@H](O)[C@@H](C)[C@H](OC(C)=O)[C@@H]1C` [RIFAMPIN], for which the MIC90 came to 0.02 µM (≈ 0.0165 µg/mL). In the case of `CCN(CC)CCCCOc1cc2oc3cc(OCCCCN(CC)CC)c(OC)c(CCC(C)C)c3c(=O)c2c(O)c1CCC(C)C`, the MIC90 was determined as 6.4 µM (≈ 4.28 µg/mL). `CCN(CC)CCCCOc1ccc2c(=O)c3c(O)cc(OCCCCN(CC)CC)cc3oc2c1`: the MIC90 was > 30 µM. With `CN[C@@H]1[C@H](O[C@H]2[C@H](O[C@H]3[C@H](O)[C@@H](O)[C@H](N=C(N)N)[C@@H](O)[C@@H]3N=C(N)N)O[C@@H](C)[C@]2(O)C=O)O[C@@H](CO)[C@H](O)[C@H]1O` [STREPTOMYCIN], the MIC90 came to 0.39 µM (≈ 0.227 µg/mL). As to `CCN(CC)CCCCCCCOc1cc2oc3cc(OCCCCCCCN(CC)CC)c(OC)c(CC=C(C)C)c3c(=O)c2c(O)c1CC=C(C)C`, the MIC90 amounted to 6.4 µM (≈ 4.79 µg/mL). Regarding `COc1c(OCC(O)CNCCN)cc2oc3cc(OCC(O)CNCCN)c(CC=C(C)C)c(O)c3c(=O)c2c1CC=C(C)C` (centres undefined), the MIC90 is > 30 µM. In turn, `NNC(=O)c1ccncc1` [ISONIAZID] returned an MIC90 of 6.25 µM (≈ 0.857 µg/mL). Still for that read-out and setting: then `CC[C@@H](CO)NCCN[C@@H](CC)CO` [ETHAMBUTOL], with 6.25 µM (≈ 1.28 µg/mL); and `CCCN(CCC)CC(O)COc1cc2oc3cc(OCC(O)CN(CCC)CCC)c(OC)c(CC=C(C)C)c3c(=O)c2c(O)c1CC=C(C)C` (centres undefined), with 6.4 µM (≈ 4.64 µg/mL); and `COC(=O)C(CCCNC(=N)N)NC(=O)COc1cc2oc3cc(OCC(=O)NC(CCCNC(=N)N)C(=O)OC)c(OC)c(CC=C(C)C)c3c(=O)c2c(O)c1CC=C(C)C` (centres undefined), with 12.8 µM (≈ 11.1 µg/mL). Compound `CCN(CC)CCOc1cc2oc3cc(OCCN(CC)CC)c(OC)c(CC=C(C)C)c3c(=O)c2c(O)c1CC=C(C)C` showed an MIC90 of 6.4 µM (≈ 3.9 µg/mL).

As for `COc1c(OCC(O)CNCCNCCNCCN)cc2oc3cc(OCC(O)CNCCNCCNCCN)c(CC=C(C)C)c(O)c3c(=O)c2c1CC=C(C)C` (centres undefined), the MIC90 was > 30 µM.

As for `COc1c(OCC(O)CNCCNC(=N)N)cc2oc3cc(OCC(O)CNCCNC(=N)N)c(CC=C(C)C)c(O)c3c(=O)c2c1CC=C(C)C` (centres undefined), the MIC90 is > 30 µM. Compound `CCN(CC)CC(O)COc1cc2oc3cc(OCC(O)CN(CC)CC)c(OC)c(CC=C(C)C)c3c(=O)c2c(O)c1CC=C(C)C` (centres undefined) showed an MIC90 of 6.4 µM (≈ 4.28 µg/mL). Same read-out and setting: then `COC(=O)C(Cc1cnc[nH]1)NC(=O)COc1cc2oc3cc(OCC(=O)NC(Cc4cnc[nH]4)C(=O)OC)c(OC)c(CC=C(C)C)c3c(=O)c2c(O)c1CC=C(C)C` (centres undefined), with > 30 µM. Turning to `CCN(CC)CCCOc1cc2oc3cc(OCCCN(CC)CC)c(OC)c(CC=C(C)C)c3c(=O)c2c(O)c1CC=C(C)C`, the MIC90 turned out to be 6.4 µM (≈ 4.08 µg/mL). As to `CCCCN(CC)CCCCOc1cc2oc3cc(OCCCCN(CC)CCCC)c(OC)c(CC=C(C)C)c3c(=O)c2c(O)c1CC=C(C)C`, the MIC90 came out at 3.2 µM (≈ 2.31 µg/mL). On to `COc1c(OCCCCN(C)C)cc2oc3cc(OCCCCN(C)C)c(CCC(C)C)c(O)c3c(=O)c2c1CCC(C)C`, for which the MIC90 came out at 6.4 µM (≈ 3.92 µg/mL).

The next experiment shares this test system. The experiment is described as follows: Bactericidal activity against Mycobacterium bovis BCG ATCC 35734 assessed as log reduction in bacterial colonies up to 8 times MIC measured after 24 hrs by time-kill assay. Type of experiment: functional, Mycobacterium tuberculosis variant bovis BCG.
Settings: not given
With `NNC(=O)c1ccncc1` [ISONIAZID], the Activity was 2.6.
